Assay results: paper PMC8894198, “Biosynthetic Microcin J25 Exerts Strong Antibacterial, Anti-Inflammatory Activities, Low Cytotoxicity Without Increasing Drug-Resistance to Bacteria Target” (Frontiers in Immunology, 2022)
Values after ≈ are worked out from the molar mass of the structure shown. Where a SMILES comes first, the peptide text is derived from it. Bridges are numbered along the chain shown (N, C = ends).

How the values were obtained:
[1] = tested on: cocktail of MDR E. coli strains (521ZQE, AZ1, WWE921A-2) in C57BL/6 J mice; experiment: Cocktail of MDR E. coli strains challenge in mice, MccJ25 pretreatment; type: in vivo
Source text: 4-week-old C57BL/6 J female mice [initial body weight (BW) 15.23 ± 0.09] were purchased from Charles River Laboratories (Beijing, China) and raised under standard conditions. The producer was described in “Mice Model” section. […] Mice were maintained in a 3-d acclimatization period of time. Afterwards, 36 mice were randomly separated into three experimental groups based on BW: Uninfected group, control; Infected group; MccJ25+infected group, 12 mice per group in four cages, three mice/cage, total of 12 cages. Cocktail of MDR E. coli strains infection producers were performed as our previous described previously ([30]), experimental roadmap was shown in Figure 10A . A single of colony of MDR E. coli strains 521ZQE, AZ1, and WWE921A-2 were incubated in LB medium and grew to stationary stage (OD600 > 3), respectively. All mice were pretreated 0.2 ml PBS (control and infected group) or 0.2 ml PBS containing with 9.1 mg/kg/BW MccJ25 (MccJ25+infected group) for 3 d (once/day) prior to infection. Infected mice and MccJ25+infected mice received 0.2 ml sterile PBS containing 5 × 10^8 cocktail of MDR E. coli strains by oral gavage. The control group still received 0.2 ml of sterile PBS by gavage for 2 d. The concentration of biosynthetic MccJ25 was selected based on our previous study ([24]). After 3 d, mice were euthanized friendly, intestinal tissues, organs and serum were obtained. Fresh fecal, tissues, liver, and spleen were immediately placed on ice (1-2 h) and transported to the laboratory to count the specific bacteria in the laboratory. Serum was kept in -20°C and part of jejunum, colon, and spleen were stored in the -80°C for cytokines analysis.
In the LPS-challenged mice experiment, lifespan of mice was monitored for 72 h. In the cocktail of MDR E. coli strains infection experiment, BW change, rectal temperature, diarrhea scores and fecal image, or survival rate were measured. For the diarrhea score evaluation producer was referred to previous study ([24]).
The 0.1 g fresh jejunum, ileum, proximal colon, feces, liver, and spleen were collected and kept in sterile tubes containing 0.9 ml sterile physiological saline solution. Then, cryogenic lapping instrument (Shanghai Jingxin Industrial Development Co., Ltd., China) was applied to prepare the homogenate. 0.1 mL indicated samples prepared by ten-fold serial dilutions method were plated on indicated antibiotics MacConkey (OXOID, Hampshire, UK) and ChromAgar™ (OXOID, Hampshire, UK) plates. These plates were cultured overnight at 37°C to count colonies. Colony numbers were expressed as log 10 CFU/g of samples. All counts were performed in triplicate. Colonies were observed on the MacConkey agar and ChromAgar plates in the absence of indicated antibiotics, we considered that they were enterobacteria-like bacterium belonging to the class of family Enterobacteriaceae.
Quantification of total bacteria, E. coli, Lactobacillus, and Bifidobacterium was done using PCR. In brief, total microbial DNA from cecal digesta was obtained. The total bacteria, Lactobacillus, Bifidobacterium, E. coli primers were synthesized in Invitrogen (Shanghai, China), which are listed in Table S1 . Standard curves of indicated bacteria were generated based on the construction of standard plasmids containing the 16S rRNA genes. The copy numbers of total bacteria, Lactobacillus, Bifidobacterium, and E. coli were calculated referring to standard curves as described previously ([30]).
The concentrations of tumor necrosis factor-α (TNF-α), interleukin-6 (IL-6), IL-4, interferon (IFN)-γ, and nitric oxide (NO) in serum were measured. In addition, TNF-α and NO levels were also measured in the supernatant of RAW264.7 cells. ELISA was performed using a commercial ELISA kit (eBioscience, San Diego, USA). LPS levels in plasma were analyzed using the QCL-1000 kit (Xiamen, China) based on the manufacturer’s standards. […]

[2] = tested on: E. coli CVCC1515; experiment: MIC/MBC broth dilution, standard strain; type: cell-based
Method: (§1) The minimum inhibitory concentration (MIC) refers to the lowest concentration that can produce a significant hindrance to bacterial growth in a drug sensitivity test by adopting a broth dilution, with certain refinements and modifications based on the previous description ([25], [26]). In short, MccJ25 was dissolved in sterilized distilled water (SDW), serial 2-fold dilutions were prepared in Mueller-Hinton broth (MHB) through a 96-well microtiter plate, and the final concentration of MccJ25 was maintained in the range of 0.003125 to 256 μg/mL. Then, 2 μL of standard and clinically relevant overnight broth cultures of bacteria were inoculated into each well at a concentration of 5 × 10^6 CFU/mL. Microtiter plates were incubated at 37°C for one full day. Two groups were set up: positive (medium with inoculum) and negative (medium only) controls. The minimum bactericidal concentration (MBC) was measured in LB medium and refers to the first drug dilution value at which the initial bacterial concentration was reduced by 99.99%. The final analysis was determined by the results of three replicated and independent experiments. To further assess and clarify the antimicrobial activity of MccJ25, the protective ability against E. coli adhesion, live/dead assay, and killing curve were performed, the detailed methods were provided in Supplementary Materials .

[3] = tested on: E. coli 1499; experiment: MIC/MBC broth dilution, standard strain; type: cell-based
Method: as §1

[4] = tested on: E. coli ATCC25922; experiment: MIC/MBC broth dilution, standard strain; type: cell-based
Method: as §1

[5] = tested on: Shigella flexneri CMCC51571; experiment: MIC/MBC broth dilution, standard strain; type: cell-based; conditions: LB medium, 99.99% reduction; three independent experiments
Method: as §1

[6] = tested on: Salmonella enteritidis CMCC50336; experiment: MIC/MBC broth dilution, standard strain; type: cell-based
Method: as §1

[7] = tested on: E. coli O111:B4 LPS-challenged BALB/c mice; experiment: LPS-challenged mice experiment (septicemia model); type: in vivo; conditions: LPS 15 mg/kg i.p.; MccJ25 4.55 and 9.1 mg/kg BW; followed 72 h
[8] = 9.1 mg/kg/BW oral gavage for 3 d before infection
[9] = ELISA, vs infected group, n = 6
[10] = jejunum, colon and spleen, qPCR, vs infected mice
[11] = LB medium, 99.99% reduction, three independent experiments
[12] = broth dilution in MHB, 37°C, one day, three independent experiments

Q: How did the body weight [1, 8] turn out when `CC[C@H](C)[C@H](NC(=O)CNC(=O)[C@@H](NC(=O)[C@H](Cc1ccccc1)NC(=O)[C@H](Cc1ccc(O)cc1)NC(=O)[C@@H]1CCC(=O)NCC(=O)NCC(=O)N[C@@H](C)C(=O)NCC(=O)N[C@@H](Cc2c[nH]cn2)C(=O)N[C@@H](C(C)C)C(=O)N2CCC[C@H]2C(=O)N1)C(C)C)C(=O)NCC(=O)N[C@H](C(=O)N1CCC[C@H]1C(=O)N[C@H](C(=O)N[C@@H](CO)C(=O)N[C@@H](Cc1ccccc1)C(=O)N[C@@H](Cc1ccc(O)cc1)C(=O)NCC(=O)O)[C@@H](C)CC)[C@@H](C)O` [MccJ25, microcin J25] (GGAGHVPEYFVGIGTPISFYG-OH; lactam N-8 (inferred); C-terminus assumed) was run?
A: Its body weight is “increasing BW”.

Q: And the diarrhea incidence [1, 8]?
A: The diarrhea incidence was “decreasing diarrhea incidence”.

Q: What about the rectal temperature [1, 8] of the same molecule?
A: The rectal temperature was “increasing”.

Q: What about the lifespan / survival ([1]; 9.1 mg/kg/BW oral gavage once/day for 3 d before infection, n = 12) of the same molecule?
A: Its lifespan / survival is “prolonging the lifespan”.

Q: And the “serum IL-4” value [1, 9]?
A: Its value is “higher IL-4”.

Q: What about the “serum proinflammatory cytokines (TNF-α, IFN-γ, IL-6)” value [1, 9] of the same molecule?
A: Its value is “lower proinflammatory cytokines”.

Q: What about the “MDR E. coli colonization in liver and spleen” value ([1]; d 3 after infection, n = 6) of the same molecule?
A: Its value is “effectively reduced the degree of clinically source MDR E. coli colonization and expansion”.

Q: What about the “IL-10 mRNA” value [1, 10] of the same molecule?
A: Its value is “high anti-inflammatory cytokine IL-10”.

Q: What about the “mRNA of proinflammatory indicators (TNF-α, IL-6, IFN-γ, IL-1β, TLR4, NF-κB)” value [1, 10] of the same molecule?
A: Its value is “lower proinflammatory indicators”.

Q: And the “MDR E. coli in the intestines (jejunum, ileum, colon)” value ([1]; plate counts, d 3 after infection)?
A: Its value is “significantly reduced the number and colonization”.

Q: What about the “copy number of E. coli in cecal contents” value ([1]; real-time qPCR) of the same molecule?
A: The value was “sharply decreased the copy number”.

Q: What about the “copy numbers of Lactobacillus, Bifidobacterium in cecal contents” value ([1]; real-time qPCR) of the same molecule?
A: The value was “significantly increased the copy numbers”.

Q: And the “total bacteria copy numbers in cecal contents” value ([1]; real-time qPCR)?
A: Its value is “no significant difference”.

Q: And the “bacterial load in the feces” value ([1]; vs infected group, n = 6)?
A: The value was “markedly decreased the bacterial load”.

Q: What about the MBC [2, 11] of the same molecule?
A: Its MBC is 2.000 µg/mL (≈ 0.949 µM).

Q: And the MIC [2, 12]?
A: The MIC was 0.500 µg/mL (≈ 0.237 µM).

Q: And the MIC/MBC ([2]; ratio)?
A: Its MIC/MBC is 0.250.

Q: What about the MBC [3, 11] of the same molecule?
A: The MBC was 1.000 µg/mL (≈ 0.475 µM).

Q: And the MIC [3, 12]?
A: The MIC was 0.400 µg/mL (≈ 0.19 µM).

Q: And the MIC/MBC ([3]; ratio)?
A: Its MIC/MBC is 0.400.

Q: And the MBC [4, 11]?
A: Its MBC is 0.500 µg/mL (≈ 0.237 µM).

Q: What about the MIC [4, 12] of the same molecule?
A: The MIC was 0.125 µg/mL (≈ 0.0593 µM).

Q: What about the MIC/MBC ([4]; ratio) of the same molecule?
A: The MIC/MBC was 0.250.

Q: And the MBC [5]?
A: The MBC was 0.500 µg/mL (≈ 0.237 µM).

Q: And the MBC [6, 11]?
A: Its MBC is 4.000 µg/mL (≈ 1.9 µM).

Q: And the MIC [6, 12]?
A: The MIC was 2.000 µg/mL (≈ 0.949 µM).

Q: And the MIC/MBC ([6]; ratio)?
A: Its MIC/MBC is 0.500.

Q: What about the survival rate [7] of the same molecule?
A: Its survival rate is “increased”.
